pIC50: −log10 of the molar value.

Holding throughout (type): cell-based
The target in assay [1] is T1, N-type calcium channel (NTCC) (Homo sapiens, UniProt Q00975). As to the kind of experiment: FLIPR calcium mobilization assay for N-type calcium channel (differentiated IMR32 cells). Set-up: differentiated IMR32 cells were treated with 1×; endogenous in cells; host or cells: IMR32 cells (ATCC), differentiated 8 days with dibutyryl cAMP and bromodeoxyuridine. The note with it: calcium mobilization in vitro assay; N-type calcium channel block. On the procedure: Cell maintenance and differentiation. Unless noted otherwise, cell culture reagents were purchased from Mediatech of Herndon, Md. IMR32 cells (American Type Culture Collection, ATCC, Manassas, Va.) were routinely cultured in growth medium consisting of minimum essential medium containing 10% fetal bovine serum (FBS, Hyclone, Logan, Utah), 100 U/mL penicillin, 100 μg/mL streptomycin, 2 mM L-glutamine, 1 mM sodium pyruvate, and 1×MEM non-essential amino acids. 80-90% confluent flasks of cells were differentiated using the following differentiation medium: Growth medium plus 1 mM dibutyryl cyclic AMP (Sigma, St. Louis, Mo.), and 2.5 μM bromodeoxyuridine (Sigma). […]
T1 sequence (Q00975 whole entry): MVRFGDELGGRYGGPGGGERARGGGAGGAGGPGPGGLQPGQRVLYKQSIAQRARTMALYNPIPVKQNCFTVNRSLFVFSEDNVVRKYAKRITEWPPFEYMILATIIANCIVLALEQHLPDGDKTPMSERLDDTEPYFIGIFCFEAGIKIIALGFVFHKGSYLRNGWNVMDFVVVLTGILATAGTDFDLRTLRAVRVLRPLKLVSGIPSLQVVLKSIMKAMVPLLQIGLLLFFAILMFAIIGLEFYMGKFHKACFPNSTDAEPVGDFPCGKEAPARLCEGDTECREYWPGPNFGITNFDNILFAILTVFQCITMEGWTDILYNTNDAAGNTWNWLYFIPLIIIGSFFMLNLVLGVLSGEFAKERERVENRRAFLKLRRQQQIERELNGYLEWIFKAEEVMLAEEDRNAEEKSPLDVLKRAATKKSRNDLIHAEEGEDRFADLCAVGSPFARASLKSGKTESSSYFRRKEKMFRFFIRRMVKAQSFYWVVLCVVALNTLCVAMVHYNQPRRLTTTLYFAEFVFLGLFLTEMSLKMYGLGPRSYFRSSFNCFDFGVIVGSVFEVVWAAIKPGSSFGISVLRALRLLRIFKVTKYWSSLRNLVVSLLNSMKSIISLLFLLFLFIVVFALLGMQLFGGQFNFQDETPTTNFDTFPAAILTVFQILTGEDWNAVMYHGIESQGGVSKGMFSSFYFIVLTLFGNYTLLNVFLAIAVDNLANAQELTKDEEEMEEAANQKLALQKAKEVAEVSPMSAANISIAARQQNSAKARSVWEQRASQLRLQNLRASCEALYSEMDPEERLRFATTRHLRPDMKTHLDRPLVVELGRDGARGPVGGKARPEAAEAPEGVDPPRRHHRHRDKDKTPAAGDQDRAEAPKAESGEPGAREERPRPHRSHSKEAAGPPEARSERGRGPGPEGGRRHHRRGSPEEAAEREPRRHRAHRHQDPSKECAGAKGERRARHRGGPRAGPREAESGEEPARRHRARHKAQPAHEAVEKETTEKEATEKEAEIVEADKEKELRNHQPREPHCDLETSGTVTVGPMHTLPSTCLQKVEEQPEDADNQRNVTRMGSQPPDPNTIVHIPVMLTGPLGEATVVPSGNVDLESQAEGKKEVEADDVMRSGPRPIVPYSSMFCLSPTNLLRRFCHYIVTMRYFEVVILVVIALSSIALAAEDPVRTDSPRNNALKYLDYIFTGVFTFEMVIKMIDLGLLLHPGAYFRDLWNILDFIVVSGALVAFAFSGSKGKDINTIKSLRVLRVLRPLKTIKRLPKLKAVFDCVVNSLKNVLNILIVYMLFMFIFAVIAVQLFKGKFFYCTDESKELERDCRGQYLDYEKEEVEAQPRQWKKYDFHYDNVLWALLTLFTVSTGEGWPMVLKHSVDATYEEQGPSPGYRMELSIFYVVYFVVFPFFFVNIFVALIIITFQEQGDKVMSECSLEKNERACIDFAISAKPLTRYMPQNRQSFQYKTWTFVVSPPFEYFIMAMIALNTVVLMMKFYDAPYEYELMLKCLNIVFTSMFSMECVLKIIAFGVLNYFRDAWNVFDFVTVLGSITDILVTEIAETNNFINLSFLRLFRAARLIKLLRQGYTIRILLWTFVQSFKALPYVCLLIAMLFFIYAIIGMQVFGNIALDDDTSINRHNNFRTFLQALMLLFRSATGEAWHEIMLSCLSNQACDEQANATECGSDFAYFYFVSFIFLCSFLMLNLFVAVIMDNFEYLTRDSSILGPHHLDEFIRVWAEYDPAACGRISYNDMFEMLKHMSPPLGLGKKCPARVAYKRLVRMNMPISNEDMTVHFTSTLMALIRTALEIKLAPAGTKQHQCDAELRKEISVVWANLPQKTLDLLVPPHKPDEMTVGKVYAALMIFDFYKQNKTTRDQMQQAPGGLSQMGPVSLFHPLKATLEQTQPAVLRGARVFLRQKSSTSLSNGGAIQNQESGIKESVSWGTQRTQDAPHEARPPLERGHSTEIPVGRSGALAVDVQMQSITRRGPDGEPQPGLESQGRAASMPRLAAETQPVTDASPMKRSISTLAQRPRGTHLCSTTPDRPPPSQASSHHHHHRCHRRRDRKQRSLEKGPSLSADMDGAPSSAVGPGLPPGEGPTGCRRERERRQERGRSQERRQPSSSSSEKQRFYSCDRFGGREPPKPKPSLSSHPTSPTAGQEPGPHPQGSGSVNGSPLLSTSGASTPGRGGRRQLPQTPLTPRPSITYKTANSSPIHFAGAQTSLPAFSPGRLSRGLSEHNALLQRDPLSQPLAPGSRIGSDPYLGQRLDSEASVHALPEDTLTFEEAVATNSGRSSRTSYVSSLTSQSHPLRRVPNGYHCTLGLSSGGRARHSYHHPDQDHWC
T1 sequence (P54289 25-956 partner limits assumed): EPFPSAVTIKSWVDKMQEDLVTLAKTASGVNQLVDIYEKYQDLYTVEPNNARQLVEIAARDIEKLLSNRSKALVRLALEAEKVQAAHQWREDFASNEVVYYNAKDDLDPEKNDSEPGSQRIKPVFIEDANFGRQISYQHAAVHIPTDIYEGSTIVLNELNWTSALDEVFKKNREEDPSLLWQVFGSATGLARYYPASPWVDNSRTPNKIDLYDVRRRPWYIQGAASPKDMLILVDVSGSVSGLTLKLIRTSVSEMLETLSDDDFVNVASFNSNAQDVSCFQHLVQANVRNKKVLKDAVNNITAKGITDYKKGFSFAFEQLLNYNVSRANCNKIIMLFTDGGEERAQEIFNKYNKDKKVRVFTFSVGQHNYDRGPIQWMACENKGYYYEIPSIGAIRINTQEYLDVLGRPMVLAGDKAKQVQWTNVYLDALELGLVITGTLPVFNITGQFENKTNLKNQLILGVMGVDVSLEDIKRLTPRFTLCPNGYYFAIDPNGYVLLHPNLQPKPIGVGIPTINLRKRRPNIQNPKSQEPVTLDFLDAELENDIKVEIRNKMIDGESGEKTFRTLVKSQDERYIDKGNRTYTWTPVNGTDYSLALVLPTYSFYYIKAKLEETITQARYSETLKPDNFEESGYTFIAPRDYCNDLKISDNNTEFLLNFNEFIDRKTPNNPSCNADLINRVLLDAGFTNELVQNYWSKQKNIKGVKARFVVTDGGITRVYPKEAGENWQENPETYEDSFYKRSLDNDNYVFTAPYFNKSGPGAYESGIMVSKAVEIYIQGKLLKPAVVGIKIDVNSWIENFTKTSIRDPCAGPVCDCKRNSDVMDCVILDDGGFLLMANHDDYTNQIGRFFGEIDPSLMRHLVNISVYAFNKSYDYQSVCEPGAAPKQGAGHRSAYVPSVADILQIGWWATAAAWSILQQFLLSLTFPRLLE
T1 sequence (P54289 957-1103 partner limits assumed): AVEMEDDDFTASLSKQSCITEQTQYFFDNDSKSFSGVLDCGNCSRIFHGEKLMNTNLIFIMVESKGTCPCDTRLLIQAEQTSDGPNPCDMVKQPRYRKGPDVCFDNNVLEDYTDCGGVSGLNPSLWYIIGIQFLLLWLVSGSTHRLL
T1 sequence (Q02641 whole entry partner): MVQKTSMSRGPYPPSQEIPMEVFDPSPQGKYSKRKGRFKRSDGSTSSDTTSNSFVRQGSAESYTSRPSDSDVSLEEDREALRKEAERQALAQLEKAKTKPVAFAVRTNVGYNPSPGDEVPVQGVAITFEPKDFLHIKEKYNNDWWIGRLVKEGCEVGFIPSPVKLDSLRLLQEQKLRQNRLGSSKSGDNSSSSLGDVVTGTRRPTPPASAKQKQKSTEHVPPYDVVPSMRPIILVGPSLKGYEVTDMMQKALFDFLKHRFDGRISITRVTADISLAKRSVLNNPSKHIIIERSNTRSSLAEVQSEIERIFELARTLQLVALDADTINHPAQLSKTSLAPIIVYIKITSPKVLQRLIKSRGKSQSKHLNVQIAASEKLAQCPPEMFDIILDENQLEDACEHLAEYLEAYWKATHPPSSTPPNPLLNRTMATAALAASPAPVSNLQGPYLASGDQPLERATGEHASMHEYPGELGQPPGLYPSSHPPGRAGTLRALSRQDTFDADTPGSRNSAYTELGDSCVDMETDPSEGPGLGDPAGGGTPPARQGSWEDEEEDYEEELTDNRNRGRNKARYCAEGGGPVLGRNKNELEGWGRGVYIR
CellStripper, and seeded on poly-D-lysine-coated 96-well clear-bottom black plates (Becton Dickinson, Franklin Lakes, N.J.) at 200,000 cells/well. […] Plates were then transferred to a Fluorimetric Imaging Plate Reader (FLIPR^96, Molecular Devices, Inc., Sunnyvale, Calif.) for assay. The FLIPR measured basal Fluo-4 fluorescence for 315 seconds (i.e., 5 minutes and 15 seconds), then added 0.1 mL KCl agonist dissolved in IMR32 buffer and measured fluorescence for another 45 seconds. Final test compound concentrations on the cells after FLIPR read ranged from about 846 pM to about 17 μM, final nitrendipine concentration was 5 μM, and final KCl concentration was 90 mM. […]
A general note: A change in cytosolic calcium serves as a functional read-out for many receptors and channels.

Assay [2] concerns the target T1, N-type calcium channel (NTCC). The description is as above. The note with it: calcium mobilization in vitro assay; N-type calcium channel block. Set-up: endogenous in cells; host or cells: IMR32 cells (ATCC), differentiated 8 days with dibutyryl cAMP and bromodeoxyuridine. On the procedure: Cell maintenance and differentiation. Unless noted otherwise, cell culture reagents were purchased from Mediatech of Herndon, Md. IMR32 cells (American Type Culture Collection, ATCC, Manassas, Va.) were routinely cultured in growth medium consisting of minimum essential medium containing 10% fetal bovine serum (FBS, Hyclone, Logan, Utah), 100 U/mL penicillin, 100 μg/mL streptomycin, 2 mM L-glutamine, 1 mM sodium pyruvate, and 1×MEM non-essential amino acids. 80-90% confluent flasks of cells were differentiated using the following differentiation medium: Growth medium plus 1 mM dibutyryl cyclic AMP (Sigma, St. Louis, Mo.), and 2.5 μM bromodeoxyuridine (Sigma). Cells were differentiated for 8 days by replacing differentiation medium every 2-3 days.
FLIPR Calcium Mobilization Assay for N-type Calcium Channel. One day prior to performing this assay, differentiated IMR32 cells were treated with 1×
CellStripper, and seeded on poly-D-lysine-coated 96-well clear-bottom black plates (Becton Dickinson, Franklin Lakes, N.J.) at 200,000 cells/well. On the day of the assay, the cell plates were washed with IMR32 buffer (127 mM NaCl, 1 mM KCl, 2 mM MgCl2, 700 μM NaH2PO4, 5 mM CaCl2, 5 mM NaHCO3, 8 mM HEPES, 10 mM glucose, pH 7.4), then pre-stimulated with KCl and loaded as follows: 0.05 mL of IMR32 buffer, 0.05 mL of each compound tested diluted in IMR32 buffer containing 20 μM nitrendipine (Sigma), and 0.1 mL KCl dissolved in IMR32 buffer, plus Fluo-4 were added (3 μM final concentration, Molecular Probes, Eugene, Oreg.). Final test compound concentrations ranged from about 846 pM to about 17 μM, final nitrendipine concentration was 5 μM, and final KCl concentration was 90 mM. After 1 hour, the cells were washed twice with 0.05 mL of each compound tested in nitrendipine-containing IMR32 buffer (no KCl or Fluo-4), and then replaced with 0.1 mL of each compound tested in nitrendipine-containing IMR32 buffer. Plates were then transferred to a Fluorimetric Imaging Plate Reader (FLIPR^96, Molecular Devices, Inc., Sunnyvale, Calif.) for assay. The FLIPR measured basal Fluo-4 fluorescence for 315 seconds (i.e., 5 minutes and 15 seconds), then added 0.1 mL KCl agonist dissolved in IMR32 buffer and measured fluorescence for another 45 seconds. Final test compound concentrations on the cells after FLIPR read ranged from about 846 pM to about 17 μM, final nitrendipine concentration was 5 μM, and final KCl concentration was 90 mM. Data were collected over the entire time course and analyzed using Excel, Graph Pad Prism (version 3.02, Graph Pad, San Diego, Calif.), or an in-house non-linear regression analysis software.

Assay [3] concerns the target T2, L-type calcium channel (LTCC) (Rattus norvegicus, UniProt P22002).
T2 construct: The 6.5 kb cDNA encoding the L-type calcium channel α1c subunit was cloned by PCR amplification from rat heart cDNA; expressed in transfected cells; host or cells: HEK293 (ATCC), stably transfected
As to the kind of experiment: FLIPR calcium mobilization assay for L-type calcium channel (HEK293 cells expressing recombinant rat LTCC subunits, or alternatively differentiated A7r5 cells). The note with it: calcium mobilization in vitro assay; L-type calcium channel block. As to the method: A7r5 (ATCC) cells were maintained and routinely cultured in A7r5 growth medium consisting of Dulbecco's Modified Eagles Medium containing 10% FBS, 100 U/mL penicillin, 100 μg/mL streptomycin, 4 mM L-glutamine, and 0.15% sodium bicarbonate. 80-90% confluent flasks of cells were differentiated using the following differentiation medium: A7r5 Growth Medium plus 1 mM dibutyryl cyclic AMP (Sigma). Cells were differentiated for 8 days by replacing differentiation medium every 2-3 days.
FLIPR Calcium Mobilization Assay for L-type Calcium Channel. One day prior to performing this assay, HEK293 cells stably expressing recombinant rat L-type calcium channel (LTCC) subunits (α1c, α2δ, and β1) are trypsinized, then seeded on poly-D-lysine-coated 96-well clear-bottom black plates (Becton Dickinson, Franklin Lakes, N.J.) at 75,000 cells/well. On the day of the assay, the plates are washed with LTCC wash buffer (127 mM NaCl, 2 mM MgCl2, 700 μM NaH2PO4, 5 mM CaCl2, 5 mM NaHCO3, 8 mM HEPES, 10 mM glucose, pH 7.4), then loaded with 0.1 mL of LTCC wash buffer containing Fluo-4 (3 μM final concentration, Molecular Probes, Eugene, Oreg.). After 1 hour, the cells are washed with 0.1 mL LTCC wash buffer and resuspended in 0.05 mL LTCC assay buffer (same composition as LTCC wash buffer). Plates are then transferred to a FLIPR^96 for assay. The FLIPR measures basal Fluo-4 fluorescence for 15 seconds, then adds 0.05 mL of each compound tested diluted in LTCC assay buffer at final concentrations ranging from about 846 pM to about 17 μM. Fluo-4 fluorescence is then measured for 5 minutes. 0.1 mL KCl agonist dissolved in LTCC assay buffer is then added to the cells to produce a final concentration of 90 mM KCl, and fluorescence is measured for another 45 seconds. Data are collected over the entire time course and analyzed using Excel, Graph Pad Prism, or an in-house regression analysis software.
Alternative FLIPR Calcium Mobilization Assay for L-type Calcium Channel. Alternatively, the following cell line and procedure was used for the FLIPR calcium mobilization assay for L-type calcium channel. One day prior to performing this assay, differentiated A7r5 cells were trypsinized, then seeded on tissue culture treated 96-well clear-bottom black plates (Becton Dickinson, Franklin Lakes, N.J.) at a dilution of 1:1 from a confluent T150 cm^2 flask. On the day of the assay, the plates were washed with A7r5 wash buffer (127 mM NaCl, 2 mM MgCl2, 700 μM NaH2PO4, 5 mM CaCl2, 5 mM NaHCO3, 8 mM HEPES, 10 mM glucose, pH 7.4), then loaded with 0.1 mL of A7r5 wash buffer containing Fluo-4 (3 μM final concentration, Molecular Probes, Eugene, Oreg.). After 1 hour, the cells were washed with 0.1 mL A7r5 wash buffer and resuspended in 0.05 mL A7r5 assay buffer that was composed of A7r5 wash buffer plus 50 μM valinomycin (Sigma). Plates were then transferred to a FLIPR^96 for assay. The FLIPR measured basal Fluo-4 fluorescence for 15 seconds, then added 0.05 mL of each compound tested diluted in A7r5 assay buffer at final concentrations ranging from about 846 pM to about 17 μM. Fluo-4 fluorescence was then measured for 5 minutes. 0.1 mL KCl agonist dissolved in A7r5 assay buffer is then added to the cells to produce a final concentration of 90 mM KCl, and fluorescence was measured for another 45 seconds. Data were collected over the entire time course and analyzed using Excel, Graph Pad Prism, or an in-house regression analysis software.

In the case of `CC(C)c1ccc(CN2CCC3(C=Cc4cccnc43)CC2)cc1`, the pIC50 (usually −log10 of the IC50, conventionally taken in molar units) in assay [1] is 4.70 to 5.00. Turning to `O=C1OC2(CCN(C(=O)CCC(c3ccc(F)cc3)c3ccc(F)cc3)CC2)c2ccccc21` [Compound 14, 1,3-Dihydro-1′-[4,4-bis(4-fluorophenyl)butanoyl]-spiro[isobenzofuran-1,4′-piperidine]-3-one], the negative logarithm of the IC50 (pIC50) in assay [2] is 6.16; in assay [3], 6.51. In the same order, the values of `O=C(CCC(c1ccc(F)cc1)c1ccc(F)cc1)N1CCC2(CCc3ccccc32)CC1` [Compound 35, 1-[4,4-bis(4-fluorophenyl)butanoyl]-spiro[piperidine-4,1′-indane]] are 5.31 and less than 4.70.

For `COc1ccc(CN2CCC3(C=Cc4ccccc43)CC2)cc1` [Compound 37, 1-(4-methoxybenzyl)-spiro[piperidine-4,1′-indene]], the pIC50 in assay [2] is 6.09; in assay [3], 5.26. On the same counts, the results for `Fc1ccc(C(CCCN2CCC3(CC2)OCc2ccccc23)c2ccc(F)cc2)cc1` [Compound 42, 1,3-Dihydro-1′-[4,4-bis(4-fluorophenyl)butyl]-spiro[isobenzofuran-1,4′-piperidine]] are 5.92 and 5.59.

As for `O=C1c2ccccc2C2(CCN(CCCC(c3ccc(F)cc3)c3ccc(F)cc3)CC2)N1Cc1ccccc1` [Compound 51, 2-Benzyl-2,3-dihydro-1′-[4,4-bis(4-fluorophenyl)butyl]-spiro[isoindole-1,4′-piperidine]-3-one], the negative logarithm of the IC50 (pIC50) was 6.26 in assay [2] and 5.19 in assay [3]. On the same counts, the results for `O=C1Nc2ccccc2C12CCN(CCCC(c1ccc(F)cc1)c1ccc(F)cc1)CC2` [Compound 60, 2,3-Dihydro-1′-[4,4-bis(4-fluorophenyl)butyl]-spiro[indole-3,4′-piperidine]-2-one] are 5.98 and 5.42. On the same counts, the results for `O=C1OC2(CCN(CCCN(c3ccc(F)cc3)c3ccc(F)cc3)CC2)c2ccccc21` [Compound 68, 1,3-Dihydro-1′-{3-[N,N-bis(4-fluorophenyl)amino]propyl}-spiro[isobenzofuran-1,4′-piperidine]-3-one] are 6.64 and less than 4.70.

These data come from patent US8193208B2 (Purdue Pharma L.P., priority 2005, dated 2012).
